According to patent US7754677B2, “Composition and method for reducing diarrhea in a mammal” (Hill's Pet Nutrition, Inc., priority 2003, dated 2010):

Tests used:
[1] = Postprandial plasma glutamine dose response study in dogs; format: in vivo
Description: In one experiment, a source of glutamine was tested to see if it was bioavailable and able to deliver adequate glutamine to the intestinal cells. The source of glutamine was a wheat hydrolysate with an enrichment of 30% glutamine. A dose response study was carried out in 6 dogs to see if increasing levels of the glutamine source (0, 0.5, 1.0, 2% glutamine content) was detected in the plasma after feeding the diet.

[2] = tested on: T cell lymphocyte; experiment: T-cell proliferation assay in response to ConA mitogen, blood of dogs fed glutamine supplemented diet; format: in vivo, Beagle dogs; conditions: for T cell proliferation (log10 cpm): ConA mitogen, data collapsed across ConA doses
Description: In a further experiment, the efficacy of glutamine as a immune-modulator was examined. 20 Beagle dogs were randomly allocated into 4 groups receiving either basic diet or basic diet supplemented with 1%, 2%, or 4% glutamine. Blood samples were drawn in heparinized tubes from animals 2 hrs after their last feeding on day 1 and 16. Samples were prepared for immune measurement. (T cell proliferation assay).
T-cell proliferation assay. Peripheral blood leukocytes (PBL) in each blood sample were counted using Nova Celltrak II (Beckman Coulter Corp., Fla.). Blood was diluted (1:20) with supplemented media. Diluted blood was plated, in triplicate, in 96 well cell culture plates with the following mitogens diluted in supplemented media: Concanavalin A (0.5 μg/ml, 2.5 μg/ml. Plates were incubated in a humidified incubator containing 7% CO2 at 37° C. for 72 hrs. Cellular DNA was […]. Cellular DNA was harvested on glass fiber paper using a cell harvester (Skatron Instruments Inc., Va.) and suspended with 1.5 ml scintillation cocktail. [^3H]thymidine uptake was quantified as counts per minutes (CPM) using TriCarb 2100TR Liquid Scintillation Analyzer (Packard BioScience Company, Ill.). Counts were normalized to CPM/10,000 cells to account for variation in PBL concentrations.
Concanvalin A (Con A) is a polyclonal T-cell mitogen. […] Thus, the data were collapsed across the different doses of Con A to show the proliferative response of lymphocytes dependent on percentage of glutamine supplemented in the diet.

% Change in plasma glutamine from control ([1]; 0.5% supplemented glutamine in food): 3%
% Change in plasma glutamine from control ([1]; 1.0% supplemented glutamine in food): 10%
% Change in plasma glutamine from control ([1]; 2.0% supplemented glutamine in food): 15%
SMILES: NC(=O)CC[C@H](N)C(=O)O [glutamine]
Lymphocyte proliferation, result in words ([2]; 1% glutamine in diet, versus control group P<0.05): maximum lymphocyte proliferation
T cell proliferation (log10 cpm) ([2]; 1% supplemental glutamine in diet): 5 log10 cpm
T-lymphocytes proliferation, result in words ([2]; 1-2% glutamine in diet): enhances overall T-lymphocytes proliferation
T cell proliferation (log10 cpm) ([2]; 2% supplemental glutamine in diet): 4.8 log10 cpm
T-lymphocytes proliferation, result in words ([2]; 4% glutamine in diet): not additionally beneficial
T cell proliferation (log10 cpm) ([2]; 4% supplemental glutamine in diet): 4.5 log10 cpm
